Entries after “also recorded” stand apart in the source; their conditions may differ.
Legend:
Assay type in all cases: biochemical, S. cerevisiae
[1] = target: T1, Invertase (EC 3.2.1.26, β-fructofuranosidase) (Saccharomyces cerevisiae, UniProt P00724); test: Glucometer-based Michaelis-Menten kinetics of invertase-catalysed sucrose hydrolysis; settings: for reaction velocity of the sucrose: sucralose 20 mM or lower (FIG. 11)
T1 construct: purchased Sigma-Aldrich
Text: (§1) Invertase (EC 3.2.1.26, β-fructofuranosidase, S. cerevisiae) was purchased from Sigma-Aldrich with a specific activity of >300 u/mg of solid (pH 4.6, 303 K).

[2] = target: T1, Invertase (EC 3.2.1.26, β-fructofuranosidase); test: Real-time 1H-NMR (qNMR) progress curve analysis of invertase-catalysed sucrose hydrolysis, Lambert-W fit; settings: for β-anomer of glucose formed: in the presence of sucralose (FIG. 5); for α-anomer of glucose formed: in the presence of sucralose (FIG. 5, 50 mM each)
Text: Equation [5], derived from Equation [2], relates the substrate concentration at any time ([S]) to its initial concentration ([S]0), the Michaelis-Menten kinetic parameters Vmax and KM. Equation [5] is used to fit the real time experimental data obtained for enzyme kinetics using the analysis code written using R-Statistical environment (R Core Team 2014).
as §1
Two standard samples were made in standard 5 mm NMR tubes to set up the NMR parameter.
All NMR kinetics solutions were made in an Eppendorf tube with a volume of 550 μL prior to adding 100 μL of invertase into the Eppendorf tube then transferring 600 μL of the solution into a NMR tube. The 100 μL invertase solution was added into the Eppendorf tube when the NMR kinetics experiment was ready to start. A timer was set at the beginning of the addition of the invertase solution in order to account for the delay time (the time before the collection of the NMR spectra) as this is a crucial part of the latter calculation.
^1H-NMR time-course data were collected in real time by qNMR (Vairan-Agilent, VNMRS system) and the kinetic data were subsequently processed using a non-linear least square fit procedure by using the Lambert-W function. This method was applied to determine the effect on the enzyme kinetics of hydrolysis, a fundamental step in converting the sucrose to glucose and fructose. Experimental results obtained using the direct real-time measurements were validated using a glucometer based approach.
The spectrometer software is used to find the integration under each peak of the sucrose (5.41 ppm) and TSP (0.0 ppm). The concentration of the sucrose peak is calculated with reference to the known concentration of TSP. If multiple experiments are performed, averages and standard deviations of the integrations of the trials at each temperature is calculated. A two-column excel or text (tab limited format) with X=Time and Y=[S] is produced as the input to the R-program. The written code utilizes the following external libraries: spatstat and gsl (to implement functions such as LambertW function), xtable (for table manipulations) and ggplot2 (to make plots (optional)). The R-code reads the input file and creates a data fit, statistics and plot with the experimental and fitted values. Typically the procedure works with a minimum of 15 time points sampled uniformly over the experimental time period chosen and it utilizes a non-linear least square fitting procedure. In addition to generating a plot (FIG. 10A), the code generates a file in picture format (.png) and a tab-limited text file that can be imported into other plotting routines. The statistical parameters of the fit (FIG. 10B) are also available in a tabular form for reporting purposes, which includes the fitted values (Coef.), standard error of the fit, t-statistics and p-value for each of the parameters. If the signal has not decayed to zero, an additional parameter (FIG. 10B) can be used as an offset.

[3] = substrate: OC[C@H]1O[C@@](CO)(O[C@H]2O[C@H](CO)[C@@H](O)[C@H](O)[C@H]2O)[C@@H](O)[C@@H]1O; test: as above; settings: 30.0 °C
[4] = other: Average of three trials, sucrose 42 mM, no sucralose
[5] = other: Trial 1, sucrose 42 mM, no sucralose
[6] = other: Trial 2, sucrose 42 mM, no sucralose
[7] = other: Trial 3, sucrose 42 mM, no sucralose
[8] = other: no sucralose (0 mM), sucrose 40 mM, sucrose:sucralose 1:0

## OC[C@H]1O[C@H](O[C@]2(CCl)O[C@H](CCl)[C@@H](O)[C@@H]2O)[C@H](O)[C@@H](O)[C@H]1Cl [sucralose]
[1]; molar ratio of sucrose to sucralose 1:0.25 (FIG. 13)
  inhibition (substrate inhibition model curve): more than 50%
[1]; substrate concentration 0.1 M
  reaction velocity of the sucrose: over 0.4 M/min
[1]; substrate concentration about 0.27 M
  reaction velocity of the sucrose: over 0.4 M/min
[2]; 1:2 ratio of sucrose:sucralose
  decrease of the maximal velocity (Vmax): ~33%
  enzyme catalytic activity inhibited: 50%
  increase of the KM value: ~50%
[2]; addition of sucralose (50 mM)
  decrease of the maximal velocity (Vmax): 37%
[2]; after 20 minutes
  β-anomer of glucose formed: about 7 mM
[2]; after 60 minutes of enzymatic conversion, in the presence of sucralose, starting sucrose 50 mM (FIG. 4)
  sucrose concentration remaining: about 15 mM
[2]; after 60 minutes
  β-anomer of glucose formed: about 10 mM
  α-anomer of glucose formed: about 22 mM
[2]; after 120 minutes
  β-anomer of glucose formed: about 17 mM
  α-anomer of glucose formed: about 22.5 mM
[2]; in the presence of sucralose, FIG. 4 (equimolar sucrose:sucralose, ~50 mM each)
  Vmax: 1.87 µM/min
[2]; regression line, FIG. 12B
  decrease of Vmax per unit increase of sucralose: 6.54 ± 0.03 µM/min
[2]; regression line, FIG. 12C
  decrease of catalytic efficiency of the enzyme per unit increase of sucralose (in mM): 152.1 mM^2/min
[2]; sucralose 1 mM, sucrose 40 mM (40:1)
  Vmax: 2.71 ± 0.04 µM/min
[2]; sucralose 5 mM, sucrose 40 mM (8:1)
  Vmax: 2.95 ± 0.04 µM/min
[2]; sucralose 10 mM, sucrose 40 mM (4:1)
  Vmax: 2.61 ± 0.03 µM/min
[2]; sucralose 20 mM, sucrose 40 mM (2:1)
  Vmax: 2.49 ± 0.02 µM/min
[2]; sucralose 40 mM, sucrose 40 mM (1:1)
  Vmax: 2.25 ± 0.02 µM/min
[2]; sucralose 50 mM
  increase of the KM value: more than 20%
  reduction of the enzymatic activity of the invertase: 20%
[2]; sucralose 60 mM, sucrose 40 mM (1:1.5)
  Vmax: 1.87 ± 0.02 µM/min
[2]; sucralose 80 mM, sucrose 40 mM (1:2)
  Vmax: 1.72 ± 0.02 µM/min
[2]; sucralose concentration during sucrose hydrolysis
  conversion of sucralose by enzymatic hydrolysis (invertase): not affected by enzymatic hydrolysis; also recorded: not converted

## OC[C@H]1O[C@@](CO)(O[C@H]2O[C@H](CO)[C@@H](O)[C@H](O)[C@H]2O)[C@@H](O)[C@@H]1O [sucrose]
[2]; no sucralose (0 mM), sucrose 40 mM, sucrose:sucralose 1:0
  Vmax: 2.57 ± 0.03 µM/min

B1: Invertase (EC 3.2.1.26, β-fructofuranosidase) (Saccharomyces cerevisiae S288C) (protein)
chain: SMTNETSDRPLVHFTPNKGWMNDPNGLWYDEKDAKWHLYFQYNPNDTVWGTPLFWGHATSDDLTNWEDQPIAIAPKRNDSGAFSGSMVVDYNNTSGFFNDTIDPRQRCVAIWTYNTPESEEQYISYSLDGGYTFTEYQKNPVLAANSTQFRDPKVFWYEPSQKWIMTAAKSQDYKIEIYSSDDLKSWKLESAFANEGFLGYQYECPGLIEVPTEQDPSKSYWVMFISINPGAPAGGSFNQYFVGSFNGTHFEAFDNQSRVVDFGKDYYALQTFFNTDPTYGSALGIAWASNWEYSAFVPTNPWRSSMSLVRKFSLNTEYQANPETELINLKAEPILNISNAGPWSRFATNTTLTKANSYNVDLSNSTGTLEFELVYAVNTTQTISKSVFADLSLWFKGLEDPEEYLRMGFEVSASSFFLDRGNSKVKFVKENPYFTNRMSVNNQPFKSENDLSYYKVYGLLDQNILELYFNDGDVVSTNTYFMTTGNALGSVNMTTGVDNLFYIDKFQVREVK
notes: purchased Sigma-Aldrich
[3]; [4]
  Km: 38.57 ± 3.72 mM
  Vmax: 2.54 ± 0.18 µM/min
[3]; [5]
  Km: 34.69 ± 3.96 mM
  Vmax: 2.34 ± 0.18 µM/min
[3]; [6]
  Km: 43.59 ± 11.90 mM
  Vmax: 2.77 ± 0.54 µM/min
[3]; [7]
  Km: 37.44 ± 7.79 mM
  Vmax: 2.51 ± 0.36 µM/min
[3]; [8]
  Km: 50.60 mM
  Vmax: 2.57 ± 0.03 µM/min

— patent US10612071B2, “Method of measuring the deleterious effects of non-caloric artificial sweeteners on enzymatic hydrolysis of sucrose measured in real time” (California State University, Fresno, priority 2016, dated 2020)
